Data published in patent US20250171434A1, “SEC61 INHIBITORS AND USE THEREOF” (KEZAR LIFE SCIENCES, INC., priority 2022, published 2025).

What was measured:
[1] = tested on: IL-2-FL/Gaussia Luciferase; assay: Dox Inducible IL2-FL-Gluc Assay; format: cell-based; settings: Table 1; for 24 hr Dox Inducible IL2FLGluc 293FRT/TO: IL2/PD1: ratio of IC50s IL2/PD1; for IC50: read-out: 24 hr Dox Inducible IL2FLGluc 293FRT/TO: Mean IC50
Method in brief: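 Cells are plated one day ahead, then receive compound dilutions in DMSO/media with doxycycline and incubate at 37° C, 5% CO2. They are Flp-In 293 T-REx cells expressing a full-length IL-2 (amino acids 1-153)–Gaussia luciferase fusion under T-REx control.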

[2] = Liver Microsome Stability Assay, mouse; format: in vitro ADME; settings: mouse liver microsomes 1.0 mg/mL, 1.0 uM compound, 37° C., 1 mM NADPH
Method in brief: (§1)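 Compound at 1.0 uM (0.4% DMSO) was incubated at 37° C with 1.0 mg/mL liver microsomes in 0.1 M potassium phosphate, with or without 1 mM NADPH. Samples were quenched at 0 and 30 minutes.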

[3] = Liver Microsome Stability Assay, rat; format: in vitro ADME; settings: rat liver microsomes 1.0 mg/mL, 1.0 uM compound, 37° C., 1 mM NADPH
Method in brief: as §1

[4] = Liver Microsome Stability Assay, monkey; format: in vitro ADME; settings: monkey liver microsomes 1.0 mg/mL, 1.0 uM compound, 37° C., 1 mM NADPH
Method in brief: as §1

[5] = tested on: multiple myeloma cell line U266B1; assay: U266 Cell Viability Assay; format: cell-based; settings: Homo sapiens, U-266; U266B1 cells, 48 hours, Celltiter-Glo; read-out: 48 hr U266 Viability Celltiter-Glo: Mean EC50
Method in brief: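 Steps: culture in RPMI 1640 plus 10% FBS and 2 mM glutamine; plate and add compound dilutions; incubate 48 hours at 37° C., 5% CO2; add CellTiter-Glo and quantify luciferase signal.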

[6] = tested on: IL6R-ss+10aa/Gaussia Luciferase; assay: Dox-induced IL-6R-ss-Gluc Assay; format: cell-based; settings: Table 1; for IC50: Flp-In 293 T-REx cells, 24 hours with doxycycline, read-out: 24hr Dox Inducible IL6R(ss + 10)Gluc 293FRT/TO: Mean IC50; for 24hr Dox Inducible IL6R(ss + 10)Gluc 293FRT/TO: IL6R/PD1: ratio of IC50s IL6R/PD1
Method in brief: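 Flp-In 293 T-REx cells stably carrying a doxycycline-inducible IL6R signal sequence+10 aa fused to Gaussia luciferase. Cells plated the day before; compound dilutions added in DMSO/media containing doxycycline and incubated at 37 °C, 5% CO2.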

[7] = tested on: PD1-ss+10aa/Gaussia Luciferase; assay: Dox-Induced PD1-ss-Gluc Assay; format: cell-based; settings: Flp-In 293 T-REx cells, 24 hours with doxycycline; Table 1; read-out: 24 hr Dox Inducible PD1ssGluc 293FRT/TO: Mean IC50
Method in brief: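 Flp-In 293 T-REx cells stably carrying a doxycycline-inducible Gaussia luciferase fused to the PD1 signal sequence plus 10 aa were plated the day before. Compound dilutions in DMSO/media containing doxycycline were then added and incubated at 37 °C, 5% CO2. Data for undefined stereochemistry refer to stereoisomer mixtures.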

CD47(ss + 10)Gluc = assay: Dox-Induced CD47-ss-Gluc Assay; format: cell-based; settings: Flp-In 293 T-REx cells, 24 hours with doxycycline; Table 1; read-out: 24 hr Dox Inducible CD47(ss + 10)Gluc 293FRT/TO: Mean IC50
[8] = tested on: multiple myeloma cell line NCI-H929; assay: H929 Cell Viability Assay; format: cell-based, human; settings: Homo sapiens; NCI-H929 cells, 48 hours, Celltiter-Glo; read-out: 48 hr H929 Viability Celltiter-Glo: Mean EC50
Method in brief: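 Luminescent ATP detection (CellTiter-Glo) after 48 hours of compound exposure measures viability. Cells were plated in RPMI 1640 containing 10% fetal bovine serum and kept at 37° C under 5% CO2.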

[9] = Liver Microsome Stability Assay, human; format: in vitro ADME; settings: human liver microsomes 1.0 mg/mL, 1.0 uM compound, 37° C., 1 mM NADPH
Method in brief: as §1

[10] = Flp-In 293 T-REx cells, 24 hours with doxycycline

Row | SMILES | 24 hr Dox Inducible IL2FLGluc 293FRT/TO: Mean IC50 (nM) [1, 10] | 24 hr Dox Inducible IL2FLGluc 293FRT/TO: IL2/PD1 [1] | Liver Microsome Stability (Multiple Species): Mouse - % Remaining after 30 min w/ NADPH (%) [2] [%] | Liver Microsome Stability (Multiple Species): Rat - % Remaining after 30 min w/ NADPH (%) [3] [%] | Liver Microsome Stability (Multiple Species): Monkey - % Remaining after 30 min w/ NADPH (%) [4] [%] | EC50 [5] [µM] | IC50 [6] [µM] | 24hr Dox Inducible IL6R(ss + 10)Gluc 293FRT/TO: IL6R/PD1 [6] | IC50 [7] [µM] | IC50 (CD47(ss + 10)Gluc) [µM] | EC50 [8] [µM] | Liver Microsome Stability (Multiple Species): Human - % Remaining after 30 min w/ NADPH (%) [9] [%] | IC50 [1, 10] [µM]
1 | O=C(Nc1nc(/C=C/c2ncn(C3CC3)c2Cl)cs1)c1cc(SC(F)F)cn1Cc1ccnc(F)c1 [Compound A32, (E)-N-(4-(2-(5-chloro-1-cyclopropyl-1H-imidazol-4-yl)vinyl)thiazol-2-yl)-4-((difluoromethyl)thio)-1-((2-fluoropyridin-4-yl)methyl)-1H-pyrrole-2-carboxamide] | I.A | >2400 | 27 | 5 | 2 | > 25 | 1.94 | 187 | 0.01 | 3.06 | > 25 | 1 | 
2 | CN[C@H]1CC[C@@H](/C=C/c2csc(NC(=O)c3cccn3Cc3ccncc3)n2)CC1 [Compound B11, N-(4-((E)-2-((1s,4s)-4-(methylamino)cyclohexyl)vinyl)thiazol-2-yl)-1-(pyridin-4-ylmethyl)-1H-pyrrole-2-carboxamide] |  | 0.8 | 54 | 32 | 3 | > 25 | > 25 | >1.3 | 18.7 | > 25 | 24.7 | 1 | 14.1
3 | CN[C@H]1CC[C@H](/C=C/c2csc(NC(=O)c3cccn3Cc3ccncc3)n2)CC1 [Compound B12, N-(4-((E)-2-((1r,4r)-4-(methylamino)cyclohexyl)vinyl)thiazol-2-yl)-1-(pyridin-4-ylmethyl)-1H-pyrrole-2-carboxamide] |  | 0.4 | 57 | 12 | <1 | > 25 | > 25 | >1.5 | 17.1 | 15.6 | > 25 | <1 | 7.13
4 | N#Cc1ccc(/C=C/c2csc(NC(=O)c3cccn3Cc3ccnc(F)c3)n2)nc1 [Compound B13, (E)-N-(4-(2-(5-cyanopyridin-2-yl)vinyl)thiazol-2-yl)-1-((2-fluoropyridin-4-yl)methyl)-1H-pyrrole-2-carboxamide] |  | >500 | 4 | <1 | <1 | > 25 | > 25 | >500 | 0.05 | > 25 | > 25 | <1 | > 25
5 | Cc1nc(/C=C/c2csc(NC(=O)c3cccn3Cc3ccnc(F)c3)n2)ccc1C#N [Compound B14, (E)-N-(4-(2-(5-cyano-6-methylpyridin-2-yl)vinyl)thiazol-2-yl)-1-((2-fluoropyridin-4-yl)methyl)-1H-pyrrole-2-carboxamide] |  | >23 | 0.2 | <1 | <1 | > 25 | > 25 | >23 | 1.1 | > 25 | > 25 | <1 | > 25
6 | CC(=O)N[C@H]1CC[C@@H](/C=C/c2csc(NC(=O)c3cccn3Cc3ccncc3)n2)CC1 [Compound B15, N-(4-((E)-2-((1s,4s)-4-acetamidocyclohexyl)vinyl)thiazol-2-yl)-1-(pyridin-4-ylmethyl)-1H-pyrrole-2-carboxamide] |  | >2.1 | 2 | 1 | <1 | > 25 | > 25 | >2 | 11.9 | > 25 | > 25 | <1 | > 25
7 | N[C@H]1CC[C@@H](/C=C/c2csc(NC(=O)c3cccn3Cc3ccncc3)n2)CC1 [Compound B16, N-(4-((E)-2-((1s,4s)-4-aminocyclohexyl)vinyl)thiazol-2-yl)-1-(pyridin-4-ylmethyl)-1H-pyrrole-2-carboxamide] |  | 2.4 | 79 | 47 | 2 | 21.3 | 8.77 | 1 | 8.11 | 7.07 | 19.3 | 1 | 19.5
8 | CC(=O)N[C@H]1CC[C@H](/C=C/c2csc(NC(=O)c3cccn3Cc3ccncc3)n2)CC1 [Compound B17] |  | 1.6 | 4 | 17 | <1 | 8.61 | 23.8 | 5 | 5.1 | > 25 | 5.11 | <1 | 8.24
